# Assay results: patent publication US7033598B2, “Methods and apparatus for enhanced and controlled delivery of a biologically active agent into the central nervous system of a mammal” (Intrabrain International N.V., priority 1995, dated 2006)
# Settings: transnasal iontophoresis +3.0 mA, 60 minutes; exsanguinated rabbits
# Method: The drug was administered by two nasal electrodes that were each deep inserted in the nasal passages. The receptor electrode was positioned at the back of the animal's head. The animal was prior to delivery exsanguinated so that drug transport via the systemic compartment to the brain cannot occur.
# The receptor electrode used in the experiments was saturated with a 0.9% NaCl solution. The iontophoresis apparatus used in these experiment was an Endomed 581 (Enraf Nonius, Delft, The Netherlands) iontophoresis device.
# Seven of the nine animals were treated “actively” by means of transnasal iontophoresis. A medium frequency, interrupted direct current with a strength of +3.0 mA was applied to the electrodes immediately after the exsanguination was completed. The remaining two animals functioned as controls of the method and no current was supplied to their electrodes. The experiment lasted 60 minutes.
smiles,measurement,value
"Cl.Nc1c2c(nc3ccccc13)CCCC2.O [Tacrine hydrochloride, 9-amino-1,2,3,4-tetrahydroacridine hydrochloride monohydrate]",migration distance under the applied electric field,5-6 cm
